This note sets out measurements from PMC5864073, “A D-enantiomer of the antimicrobial peptide GL13K evades antimicrobial resistance in the Gram positive bacteria Enterococcus faecalis and Streptococcus gordonii” (PLoS ONE, 2018).

One assay concerns wild-type E. faecalis. The assay is described as follows: Bactericidal activity in sodium phosphate buffer. The format is cell-based, Enterococcus faecalis. Conditions: 10^8 CFU/ml wild-type E. faecalis, no energy source, 10 mM sodium-phosphate pH 7.4, 2 h, 37°C, spotted on THA; D N = 4, L N = 3. On the procedure:
These assays were performed according to our established protocol with some modifications. Cells were washed three times in 0.9% NaCl and five μl of washed cells (10^9 CFU/ml) were added to the peptides diluted 2-fold (128 to 4 mg/L) in 45 μl of 10 mM sodium-phosphate, pH 7.4. The samples were incubated at 37°C for 2 h and 10 μl were then spotted on THA plates to assess bactericidal activity.

For assay [1], the system named is E. faecalis OG1RF (wild-type). The assay is described as follows: Minimal inhibitory concentration, broth dilution. The format is cell-based, Enterococcus faecalis. Also on record: key to MIC (mg/L): >: Mean MIC is above the tested concentration range (this value was set at 200 mg/L for data analysis). The following applies: THB, 20 h, 37°C. How it is done: (§1) The minimal inhibitory concentration (MIC) assays were performed essentially as described for cationic AMPs, but using streptococcal growth-friendly THB without the addition of blood or serum components. A working stock of 1-5x10^5 CFU/ml in 90 or 100 μl THB was added to 10 or 20 μl of a 2-fold serial peptide dilution in 0.01% acetic acid and incubated for 20 h at 37°C in 96-well polypropylene plates. The OD at 600 nm (OD600) was determined in a Synergy HT plate reader (BioTek, Winooski, VT). Control wells for growth without peptide and growth medium without bacteria were included. Bacterial cell numbers in the inoculum were verified by colony count.
A general note: Dilution methods test growth across graded concentrations, often in twofold steps.

A further assay concerns S. gordonii DL1 dltA. The assay is described as follows: Minimal inhibitory concentration, broth dilution. The format is cell-based, Streptococcus gordonii. The following applies: THB, 20 h, 37°C, OD600, mean ± SEM. On the procedure: as §1
A further assay relates to S. gordonii DL1 atlS. The assay is described as follows: Minimal inhibitory concentration, broth dilution. It counts as cell-based, Streptococcus gordonii. The following applies: THB, 20 h, 37°C, OD600, mean ± SEM. How it is done:
as §1

Assay [2] concerns S. gordonii DL1 (wild-type). The assay is described as follows: Selection for peptide resistance, serial MIC assays. Conditions: repeated treatment with sub-inhibitory concentrations, 2–3 experiments. It counts as cell-based, Streptococcus gordonii. On the procedure:
(§2) To investigate potential resistance development against the GL13K peptides, dilutions of the peptides were prepared and incubated as described for the MIC assay. The next day (day 0), the MIC was recorded and the culture in the well with the highest peptide concentration that allowed growth (i.e 0.5 x MIC) was diluted 1:100 and used as an inoculum for the next round of selection in a new MIC assay and so forth until a stable plateau of resistance was reached.
(§3) Fig 6 Development of resistance in S. gordonii. MICs for L-GL13K (circles) and D-GL13K (squares) were recorded on consecutive days using S. gordonii DL1 (wild-type) (open symbols) (D-enantiomer only) and dltA (closed symbols). The MIC for each day is expressed relative to the starting MIC (day 0). Data from 2–3 experiments are shown as mean ± range.

For a further assay, the system named is S. gordonii dltA mutant. The description is as above. The format is cell-based, Streptococcus gordonii. The following applies: repeated treatment with sub-inhibitory concentrations, 2–3 experiments. On the procedure: as §2, §3
For assay [3], the system named is E. faecalis OG1RF::pMSP7551. The assay is described as follows: Minimal inhibitory concentration, broth dilution. The format is cell-based, Enterococcus faecalis. Also on record: key: >: Mean MIC is above the tested concentration range (this value was set at 200 mg/L for data analysis). Conditions: E. faecalis OG1RF::pMSP7551 (un-induced); THB, 20 h, 37°C; symbol. How it is done: as §1

Another assay relates to E. faecalis OG1RF ebsG. The assay is described as follows: Minimal inhibitory concentration, broth dilution. The following applies: THB, 20 h, 37°C, symbol. On the set-up: key: >: Mean MIC is above the tested concentration range (this value was set at 200 mg/L for data analysis). It counts as cell-based, Enterococcus faecalis. How it is done:
as §1

The test system of assay [4] is E. faecalis OG1RF::pMSP7551+nisin. The assay is described as follows: Minimal inhibitory concentration, broth dilution. The format is cell-based, Enterococcus faecalis. On the set-up: key: >: Mean MIC is above the tested concentration range (this value was set at 200 mg/L for data analysis). The following applies: E. faecalis OG1RF::pMSP7551+nisin (induced); THB, 20 h, 37°C; symbol. On the procedure:
as §1

Assay [5] concerns E. faecalis TX5128 (gelE-, SprE-). The assay is described as follows: Minimal inhibitory concentration, broth dilution. Also on record: key: >: Mean MIC is above the tested concentration range (this value was set at 200 mg/L for data analysis). The following applies: THB, 20 h, 37°C. It counts as cell-based, Enterococcus faecalis. How it is done:
as §1

For assay [6], the system named is vancomycin-resistant E. faecalis V583. The assay is described as follows: Minimal inhibitory concentration, broth dilution. It counts as cell-based, Enterococcus faecalis. Also on record: key: >: Mean MIC is above the tested concentration range (this value was set at 200 mg/L for data analysis). The following applies: THB, 20 h, 37°C, symbol. How it is done: as §1

Assay [7] deals with E. faecalis OG1RF dltA (TX5427) biofilm. The assay is described as follows: Biofilm assay (Calgary device). It counts as cell-based, Enterococcus faecalis. The following applies: 24 h biofilm of OG1RF dltA, peptide 100 mg/L, 4 h, CFU relative to the wild-type biofilm. How it is done: (§4) E. faecalis OG1RF, TX5427 or V583 were cultured in a Calgary device for 24h in THB. Biofilms were treated with peptides (100 mg/L) for 4h and surviving cells were sonicated and plated on THA for enumeration of CFUs.
(§5) Fig 3 Effect of GL13K peptides on biofilms of E. faecalis. Twenty-four hour biofilms of OG1RF; OG1RF dltA or V583 were treated with 100 mg/L of L-GL13K (L) or D-GL13K (D). Surviving CFU were enumerated from each peg and expressed relative to the mean CFU recovered from pegs of wild-type cells treated with buffer alone (OG1RF—C). Data from 2–4 experiments are expressed as mean ± SEM (N = 6–13). V583 was only treated with D-GL13K.

For assay [8], the system named is E. faecalis OG1RF biofilm. The assay is described as follows: Biofilm assay (Calgary device). It counts as cell-based, Enterococcus faecalis. Conditions: 24 h biofilm of OG1RF, peptide 100 mg/L, 4 h, CFU enumerated. How it is done: as §4, §5
In assay [9] the test system is E. faecalis dltA mutant (TX5427). The assay is described as follows: Selection for peptide resistance, serial MIC assays. It counts as cell-based, Enterococcus faecalis. Conditions: serial passage at 0.5 x MIC, L-GL13K after two rounds, D-GL13K after seven rounds, three experiments. How it is done: as §2
Fig 4 Development of resistance in E. faecalis. MICs for L-GL13K (circles) and D-GL13K (squares) were recorded on consecutive days using E. faecalis OG1RF (wild-type) (open symbols) (D-enantiomer only) and dltA (closed symbols). The MIC for each day is expressed relative to the starting MIC (day 0). Data from three experiments are shown as mean ± SEM.

For assay [10], the system named is E. faecalis OG1RF dltA (TX5427). The assay is described as follows: Minimal inhibitory concentration, broth dilution. It counts as cell-based, Enterococcus faecalis. The following applies: THB, 20 h, 37°C, OD600, mean ± SEM. How it is done:
as §1

Where a SMILES comes first, the peptide text is derived from it. Where only a bound is given, the exact number is not on record here.

One may read the MIC as the least concentration at which growth counts as inhibited.

As to `CC[C@H](C)[C@H](NC(=O)[C@H](CCCCN)NC(=O)CN)C(=O)N[C@H](C(=O)N[C@@H](CCCCN)C(=O)N[C@@H](CC(C)C)C(=O)N[C@@H](CCCCN)C(=O)N[C@@H](C)C(=O)N[C@@H](CO)C(=O)N[C@@H](CC(C)C)C(=O)N[C@@H](CCCCN)C(=O)N[C@@H](CC(C)C)C(=O)N[C@@H](CC(C)C)C(N)=O)[C@@H](C)CC` [L-GL13K, Gly-Lys-Ile-Ile-Lys-Leu-Lys-Ala-Ser-Leu-Lys-Leu-Leu-NH2] (H-GKIIKLKASLKLL-NH2; N-terminus assumed), the “Peptide concentration required for complete killing” value with wild-type E. faecalis came to 48 ± 23 mg/L. Further, the “MIC” value is greater than 512 µg/mL in [1] (1-5x10^5 CFU/ml, OD600, mean ± SEM); 11 ± 3 µg/mL with S. gordonii DL1 dltA; 63 ± 8 µg/mL with S. gordonii DL1 atlS; 70 ± 17 µg/mL in assay [10]. The “MIC (mg/L)” value is listed as “>” in assay [1] (OD600, symbol); “>” in assay [3]; “>” in the assay on E. faecalis OG1RF ebsG; “>” in assay [4]; “did not inhibit growth” in assay [5] (OD600, mean ± SEM); “>” in [5] (symbol). Moreover, in [6], the “MIC (mg/L)” value was “>”. For the same compound, the entries for the “Increase of MIC relative to starting MIC (day 0)” value (in assay [2]; in the assay with S. gordonii dltA mutant; in assay [9]) were 6 fold, 16 fold and 8 fold, respectively. Also, the “Reduction of viable biofilm CFU” value in [7] is recorded as “three orders of magnitude”; in assay [8] it was “ineffective”.
